Like-named read-outs stand apart in the source and are kept apart here.
Assay: Phase I single dose inhaled, inhaled + charcoal block, oral and intravenous: pharmacokinetics and lung deposition (C-4.3)
Format: in vivo, human
Details: for bioavailability / half-life: male, human, plasma; for half-life: read-out: elimination half-life (converted)
Protocol: Healthy white male subjects, aged 18 to 45 years with a body mass index (BMI) above/equal 18.5 and below/equal 29.9 kg/m^2 were treated in a clinical phase I study with a single inhaled dose of 1000 μg (nominal dose), a single inhaled dose of 1000 μg (nominal dose)+charcoal block, a single oral dose of 1000 μg and a single infusion over 2 h of 100 μg of example 4. As the bioavailability of an intravenous application is generally 100% per definition and therefore higher than in case of an oral or […] administration, the intravenous dose was carefully selected to be lower than the oral and inhaled dose to avoid higher plasma concentration resulting from a high IV dose and potential side effect, e.g. reduction in blood pressure or syncope. Therefore, 100 μg was selected for the IV dose in this investigation. Seven days washout period between treatments was applied. The subjects swallowed a solution for oral administration (20 ml comprising 1000 μg, see under D-2, table 50). The subjects received a solution as a single infusion over 2 hours (see under D-2 table 50). The subjects inhaled the drug powder from capsules (see under D-1, e.g. tables 17 and 20) inserted into a handheld inhalation device by one deep inhalative breath. After inhalation of the dry powder formulation of this drug, some parts of the nominal dose remain in the capsule and the device, the dose which reaches the body at the mouthpiece is called the emitted dose. The emitted dose can be calculated/determined as followed: nominal dose−(remains in the capsule+remains in the device). After inhalation of the dry powder, one part of the emitted dose enters the gastrointestinal tract (GIT) and is called the oral part of the emitted dose, the other part of the emitted dose which reaches the lung through the respiratory airways is called the lung dose and represents the lung deposited dose. As the lung is the target organ of the effect, the lung deposited dose must be quantified. Lung deposition can be indirectly estimated, by determining the part of the nominal dose which reaches the GIT and the remains in the capsule and the device. To investigate and determine lung deposition, the following investigations were done (see also FIG. 77): • 1—Inhaled application of a single dose of 1000 μg of the dry powder. • 2—Inhaled application of a single dose of 1000 μg of the dry powder in combination with oral administration of charcoal block. The charcoal block capped the oral absorption of GIT part of the dose, as example 4 completely adsorbed to charcoal block. This implies that the concentrations of example 4 measured reach the systemic circulation via the lung. • 3—Administration of a single oral dose of 1000 μg example 4 to determine the oral absorption. • 4—Administration of a 2 h infusion of example 4 to investigate the elimination.
Plasma concentrations of example 4 were measured after all different types of administrations, in addition the remains in the device and the capsule were measured after inhaled application. […] The longer terminal half-life after inhalation can be explained by the formation of a pulmonary depot of example 4 in the lungs from which the substance is continuously transferred to the circulatory system.
The emitted dose is calculated to be 720 μg, as the remains in the capsule were 160 μg and the remains in the device were 120 μg, see FIG. 79.

Compound: O=C(O)c1ccc(CCN(CCc2ccccc2OCc2ccc(-c3ccc(C(F)(F)F)cc3)cc2Cl)[C@H]2CCCc3nc(C(=O)O)ccc32)cc1 [example 4, (5S)-{[2-(4-Carboxyphenyl)ethyl][2-(2-{[3-chloro-4′-(trifluoromethyl)biphenyl-4-yl]methoxy}phenyl)-ethyl]amino}-5,6,7,8-tetrahydroquinoline-2-carboxylic acid]
- emitted dose (after inhalation of 1000 μg in humans): 720 µg
- oral part of the dose (inhaled 1000 μg): approximately 13 % of the nominal dose
- bioavailability (inhaled or intranasal, 1000 μg, dry powder inhaled with charcoal (lung dose), read-out: absolute bioavailability): 16.3%
- bioavailability (inhaled or intranasal, 1000 μg, dry powder inhaled without charcoal, read-out: absolute bioavailability): 18.8%
- half-life (inhaled or intranasal, 1000 ug, inhaled 1000 μg with charcoal): 16.1 h
- half-life (inhaled or intranasal, 1000 ug, inhaled 1000 μg without charcoal): 15.1 h
- bioavailability (inhaled or intranasal, 1000 ug, read-out: relative bioavailability, inhaled with charcoal block to inhaled without): 86.9%
- half-life (iv, 100 μg, intravenous, 100 μg infusion over 2 h): 0.26 h
- half-life (po, 1000 ug, oral, 1000 μg solution): 4.43 h
